Results reported in publication PMC6224419, “Structural Studies based on two Lysine Dioxygenases with Distinct Regioselectivity Brings Insights Into Enzyme Specificity within the Clavaminate Synthase-Like Family” (Scientific Reports, 2018).
Like-named read-outs stand apart in the source and are kept apart here.

Columns and labels:
KDO1 = molecular target: T1, KDO1 (Catenulispora acidiphila, UniProt C7QJ42); type: binding; conditions: active site
T1 construct: gene Caci_0231; hexa-histidine tail (pET-22b(+)), E. coli BL21(DE3); dimer in solution; first ordered residue Glu30
T1 sequence (C7QJ42 1-358): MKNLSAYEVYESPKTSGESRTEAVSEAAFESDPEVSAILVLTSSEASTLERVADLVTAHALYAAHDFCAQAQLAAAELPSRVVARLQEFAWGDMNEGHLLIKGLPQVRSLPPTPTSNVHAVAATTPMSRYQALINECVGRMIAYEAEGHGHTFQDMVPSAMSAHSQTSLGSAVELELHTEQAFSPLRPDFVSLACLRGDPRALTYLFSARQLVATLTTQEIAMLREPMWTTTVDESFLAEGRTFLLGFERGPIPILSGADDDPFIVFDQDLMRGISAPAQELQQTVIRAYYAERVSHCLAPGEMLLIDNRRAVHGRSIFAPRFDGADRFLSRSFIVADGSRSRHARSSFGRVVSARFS

KDO5 = molecular target: T2, KDO5 (Flavobacterium sp. CF136, UniProt J3BZS6); assay: X-ray crystal structure (soak); type: binding; conditions: active site
T2 construct: gene PMI10_03368; hexa-histidine tail (pET-22b(+)), E. coli BL21(DE3); tetramer in solution; first ordered residue Ala13

[1] = molecular target: the molecule itself; assay: SEC; analytic gel filtration on Superdex 200 Increase 10/300 GL, 100 µL purified protein, 50 mM Tris-HCl pH 8.0, 50 mM NaCl, 10% glycerol, 0.3 ml/min; oligomeric state from elution volume against a calibration curve; data not shown
[2] = FeSO4/dithionite soak, monomer C

For `NCCC[C@H](O)[C@H](N)C(=O)O` [(3S)-3-hydroxy-L-lysine], the “X-ray crystal structure (soak)” value (KDO1; FeSO4/dithionite soak with succinate, monomer B) was “The (3S)-3-hydroxy-L-lysine makes salt bridges with Glu180”.

In the case of `NCCCC[C@H](N)C(=O)O` [L-lysine], the “X-ray crystal structure (soak)” value (KDO1; [2]) is reported as “In KDO1, the L-lysine complex shows a well ordered lysine in monomer C” and the “X-ray crystal structure (soak)” value (KDO5; [2]) is reported as “the carboxylate of L-lysine substrate is stabilized by salt bridges with the Arg338”.

With `O=C(O)CCC(=O)O` [succinate] the “X-ray crystal structure (soak)” value (KDO5; crystals soaked with L-lysine and α-ketoglutarate, FeSO4/dithionite, monomer D) was “The succinate resultant from the oxidative decarboxylation of the α-KG, makes H-bond Tyr193”.

In the case of `O=C(O)CCC(=O)C(=O)O` [α-KG], the “X-ray crystal structure (soak)” value (KDO1; FeSO4/dithionite soak, bidentate to iron, monomer B) is reported as “In the α-KG crystals, the structure shows a well ordered α-KG in monomer B” and the “X-ray crystal structure (soak)” value (KDO5; FeSO4/dithionite soak, bidentate to iron, monomer A) is reported as “In α-KG bound structure, α-KG is best defined for monomer A”.

B1: KDO1 from Catenulispora acidiphila (L-lysine dioxygenase, C-3 regioselective) (enzyme, UniProt C7QJ42 1-358, looked up)
chain: MKNLSAYEVYESPKTSGESRTEAVSEAAFESDPEVSAILVLTSSEASTLERVADLVTAHALYAAHDFCAQAQLAAAELPSRVVARLQEFAWGDMNEGHLLIKGLPQVRSLPPTPTSNVHAVAATTPMSRYQALINECVGRMIAYEAEGHGHTFQDMVPSAMSAHSQTSLGSAVELELHTEQAFSPLRPDFVSLACLRGDPRALTYLFSARQLVATLTTQEIAMLREPMWTTTVDESFLAEGRTFLLGFERGPIPILSGADDDPFIVFDQDLMRGISAPAQELQQTVIRAYYAERVSHCLAPGEMLLIDNRRAVHGRSIFAPRFDGADRFLSRSFIVADGSRSRHARSSFGRVVSARFS
notes: KDO1, iron(II)/alpha-ketoacid-dependent lysine dioxygenase of Catenulispora acidiphila; Cloned into pET-22b(+) with a hexa-histidine tail; Dimer in solution; four molecules (two dimers) in the asymmetric unit; First ordered residue in the crystals is Glu30; also called K DiOxygenase 1; source: E. coli BL21(DE3), purified (Ni-NTA)
In the case of B1, the “stoichiometry N” value [1] is reported as 2.

B2: KDO5 from Flavobacterium sp. (L-lysine dioxygenase, C-4 regioselective) (enzyme, UniProt J3BZS6 1-372, looked up)
chain: MKSQSIMSVERSAETSLTLEIPTSPLIIKITQQERNILSNVGNLLVKAFGNYENPDYIASLHLHAFQLLPERITRILSQFGSDFSAEQYGAIVFQGLIEVDQDDLGPTPPNWQGADYGKLNKYGFICSLLHGAVPSKPVQYYAQRKGGGLLHAVIPDEKMAATQTGSGSKTDLFVHTEDAFLSNQADFLSFLYLRNEERVPSTLYSIRSHGKMNPVMKKLFEPIYQCPKDANYNDEDVANSGPTASVLYGNRELPFIRFDAAEQIFNENAGQTSEALGNLMDFWDEAKTLINSDYIPNSGDLIFVNNHLCAHGRSAFIAGQRIENGEIIKCERRQMLRMMSKTSLIHIRSVTRTDDPYFIMEEHLGKIFDLD
notes: KDO5, iron(II)/alpha-ketoacid-dependent lysine dioxygenase of Flavobacterium sp; Cloned into pET-22b(+) with a hexa-histidine tail; Tetramer in solution; four molecules (two dimers) in the asymmetric unit; First ordered residue in the crystals is Ala13; also called K DiOxygenase 5; source: E. coli BL21(DE3), purified (Ni-NTA)
In the case of B2, the “stoichiometry N” value [1] is reported as 4.
